We go through 14 molecules from patent publication US10501479B2, “Benzenesulfonyl-asymmetric ureas and medical uses thereof” (HELSINN HEALTHCARE SA, priority 2016, dated 2019).

Like-named read-outs stand apart in the source and are kept apart here.

The target of data set [1] is T1, recombinant human ghrelin receptor (HEK293/GRLN) (Homo sapiens, UniProt Q92847).
T1 construct: expressed in transfected cells
The experiment in a line: Ghrelin inverse agonist potency (EC50) with IP-1 (IP-One HTRF) assay. It counts as cell-based. The conditions noted are these: IP-1 assay. The essentials:
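HEK293/GRLN cells were seeded 18-22 hours before the test, then exposed to compound in stimulation buffer for 1 hour at 37° C, 5% CO2. IP-1 was detected by IP-One HTRF (IP1-d2 plus Tb-cryptate, 1 hour RT), reading 620 and 665 nm; the inverse agonist EC50 was derived from this.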
In general terms: Time-resolved FRET reads energy transfer from a long-lived donor to a nearby acceptor.

For data set [2], the target named is T2, GHSR-1a (HEK293/GHSR1a cell line) (Homo sapiens, UniProt Q92847).
T2 construct: expressed in transfected cells; host or cells: HEK293/GHSR1a cell line
Kind of data set: Ghrelin agonist potency (EC50) with calcium FLIPR assay. It is filed as cell-based. The essentials: (§1)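 Potency values were estimated from dose-response curves of relative fluorescence, with calcium followed for 2 minutes after additions at t=20 sec. Agonism was tested with compound alone. Antagonism was tested with compound plus 10 nM ghrelin and scored as a reduction of the ghrelin signal.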

The target of data set [3] is T2, GHSR-1a (HEK293/GHSR1a cell line). The experiment in a line: Ghrelin antagonist potency (IC50) with calcium FLIPR assay, ghrelin 10 nM. It is filed as cell-based. The essentials:
as §1

Data set [4] is described as follows: Metabolic stability in human liver microsomes. It counts as in vitro ADME. The method, then: Metabolic Stability Study
The metabolic stability of compounds in human, dog, rat and mouse liver microsomes was performed according the experimental conditions reported below:
• a) Prepare the following 5 stock solutions: • 1. Test compound stock solutions: dilute 10 mM solution of dextromethorphan (Dtr) in DMSO, 10 mM solution of diphenhydramine (DPA) in DMSO, 10 mM solution of omeprazole (Ome) in DMSO, 10 mM solution of verapamil (Ver) in DMSO, and 10 mM of an inverse agonist compound in DMSO to 0.25 mM solution each with acetonitrile/water (70/30). • 2. Buffer: 100 mM potassium phosphate Buffer (PBS) at pH 7.4 • 3. Liver microsomes (20 mg/ml): Thaw in 37° C. water bath quickly • 4. 2000 μL: of NADPH regenerating system (1.3 mM). Place this system on ice before use:
• 5. […] The test compound concentration in the wells, measured by LC-MS/MS, represents the concentration at time=0. • f) To determine the test compound concentration when t≠0, pre-incubate the NADPH regenerating system and the incubation plate containing the remaining 320 μL of incubation mixture (microsomes protein and test compound) for 5 minutes at 37° C. • g) Start the incubation reaction by adding 80 μL NADPH regenerating system to each well containing the remaining 320 μL incubation mixture. • h) After 10 min., 30 min., and 90 min. of incubation at 37° C., transfer 100 μL of the incubation mixture (microsomes protein, test compound, and NADPH) into the wells of a stop plate pre-filled with 300 μL of the cold quench solution. Shake well. • i) Centrifuge the stop plate at 5000×g for 10 minutes. Collect and dilute the supernatant 3 times with distilled water. Sample and analyze the test compound concentration for all the wells by LC-MS/MS. Animal PK Studies via i.v. (intravenous), p.o. (orally) and s.c. (subcutaneous) administrations

The nature of data set [5]: Animal PK study in mouse via i.v., p.o. and s.c. administration. It counts as in vivo. To be noted: for PK CLiv / PK Vdiv / PK t1/2iv: i.v.; for PK CLpo / PK Vdpo / PK t1/2po: p.o. The method, then: All treated animals received a single dose of a test compound (either through i.v., p.o., or s.c. administration) according to the regimen shown in the following table:
For oral dose groups, appropriate amount of test compound was prepared in the following formulation carrier: 1% DMSO (increase to 5% maximum if necessary) and 0.5% Methycellulose. Each mouse or rat received by oral gavage 10 mL/kg of the formulation mixture.
For i.v. and s.c dose groups, appropriate amount of test compound was dissolved in 1% DMSO (increase to 5% maximum if necessary), 99% of 20% HP-β-Cyclodextron (w/v). The pH was adjusted accordingly. Each mouse or rat received 5 mL/kg of the formulation mixture. i.v. dose was administered by tail vein injection. Subcutaneous injection was administered over the shoulders, into the loose skin over the neck. At designated time points (e.g., i.v. and s.c.: 0.083, 0.25, 0.5, 1, 2, 4, 8 and 24 hrs; p.o.: 0.25, 0.5, 1, 2, 4, 8 and 24 hrs), systemic samples of blood (50 μL in mouse or 500 μL in rat) were collected by puncture (submandibular vein in mouse or jugular vein in rat) into vacutainers containing EDTA-K2 as anti-coagulant. The blood was centrifuged at 6000 rpm for 8 min at 4° C. to obtain plasma. All plasma samples were stored at −20° C. All plasma samples were added to acetonitrile for protein precipitation and quantitatively analyzed by LC-MS/MS.

Where [6] appears, read: ghrelin inverse agonist potency, read-out: Activity EC50.
[7] abbreviates: ghrelin agonist potency, read-out: Activity EC50/EMax.
Setting [8] is: ghrelin antagonist potency, read-out: Activity IC50.
[9] abbreviates: inverse agonist potency, read-out: EC50 (Activity).
The mark [10] stands for this setting: ghrelin antagonist potency, read-out: IC50 (Activity).

T2 sequence (Q92847 whole entry): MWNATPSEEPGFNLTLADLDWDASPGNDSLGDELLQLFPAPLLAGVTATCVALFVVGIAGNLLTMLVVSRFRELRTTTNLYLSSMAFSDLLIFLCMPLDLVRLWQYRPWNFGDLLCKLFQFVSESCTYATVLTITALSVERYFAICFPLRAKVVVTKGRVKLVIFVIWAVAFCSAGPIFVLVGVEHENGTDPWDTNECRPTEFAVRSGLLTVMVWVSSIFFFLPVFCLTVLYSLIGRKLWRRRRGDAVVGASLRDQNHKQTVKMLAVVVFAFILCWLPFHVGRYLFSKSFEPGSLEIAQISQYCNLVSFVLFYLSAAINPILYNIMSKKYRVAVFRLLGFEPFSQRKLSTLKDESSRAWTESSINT
T1 sequence (Q92847 whole entry): as above

Turning to `CC(c1ccccc1F)N(O)C(=O)Nc1ccc(S(=O)(=O)Cc2ccc3c(c2)CN(C)C3)cc1` (stereo not shown) [H1491, 1-(1-(2-fluorophenyl)ethyl)-1-hydroxy-3-(4-(((2-methylisoindolin-5-yl)methyl)sulfonyl)phenyl)urea], the results for the EC50 in data set [1] (setting [6]) and in data set [2] (setting [7]) were 4.6 nM and more than 30000 nM, respectively. In addition, the IC50 in data set [3] (setting [8]) came to 29.7 nM. For the same molecule, the “Metabolic Stability Study H = human” value in data set [4] is “H = 79.5 μL/min/mg”.

Take `Cc1cc(NC(=O)NC(C)c2ccccc2)ccc1S(=O)(=O)Cc1ccc2c(c1)CNC2` (stereo not shown) [H1493, 1-(4-((isoindolin-5-ylmethyl)sulfonyl)-3-methylphenyl)-3-(1-phenylethyl)urea]: the results for the EC50 in data set [1] (setting [6]) and in data set [2] (setting [7]) were 4.2 nM and more than 30000 nM, respectively. Further, in data set [3] (setting [8]), the IC50 amounted to 15.3 nM. In addition, the “Metabolic Stability Study H = human” value in data set [4] is “H = 21.5 μL/min/mg”.

Regarding `CC(NC(=O)Nc1ccc(S(=O)(=O)Cc2ccc3c(c2)CNC3)c(Br)c1)c1ccccc1` (stereo not shown) [H1504, 1-(3-bromo-4-((isoindolin-5-ylmethyl)sulfonyl)phenyl)-3-(1-phenylethyl)urea], the EC50 was 5.55 nM in data set [1] (setting [6]) and more than 30000 nM in data set [2] (setting [7]). Moreover, in data set [3] (setting [8]), the IC50 turned out to be 6.47 nM. Further, the “Metabolic Stability Study H = human” value in data set [4] was “H = 19.3 μL/min/mg”.

For the molecule `C[C@H](NC(=O)Nc1ccc(S(=O)(=O)Nc2ccc3c(c2)CCNC3)cc1)c1cccc(Cl)c1Cl.Cl` [H1004, (S)-4-(3-(1-(2,3-dichlorophenyl)ethyl)ureido)-N-(1,2,3,4-tetrahydroisoquinolin-6-yl)benzenesulfonamide], the EC50 in data set [1] (setting [9]) stood at 3.97 nM. In addition, the concentration for half-maximal inhibition (IC50) in data set [3] (setting [10]) was 3.7 nM. In data set [5], the “PK F” value is reported as 13%, the “PK CLiv” value amounted to 592 mL/min/kg, the “PK Vdiv” value turned out to be 37.7 L/kg and the “PK t1/2iv” value is 0.74 h. In data set [5], the “PK CLpo” value is 3732 mL/min/kg, the “PK Vdpo” value was determined as 479.2 L/kg and the “PK t1/2po” value amounted to 1.48 h.

`CNC(=O)c1cc(S(=O)(=O)Cc2ccc3c(c2)CNC3)ccc1NC(=O)NC(C)c1ccccc1` (stereo not shown) [H1499, 5-((isoindolin-5-ylmethyl)sulfonyl)-N-methyl-2-(3-(1-phenylethyl)ureido)benzamide]: the values for the EC50 in data set [1] (setting [6]) and in data set [2] (setting [7]) were 7.1 nM and more than 30000 nM, respectively. Further, the half-inhibitory concentration (IC50) in data set [3] (setting [8]) came out at 38 nM. Moreover, the “Metabolic Stability Study H = human” value in data set [4] is on record as “H = 27.1 μL/min/mg”.

On to `COc1ccc([C@H](C)NC(=O)Nc2ccc(S(=O)(=O)Nc3ccc4c(c3)CCNC4)cc2)c(Cl)c1Cl.Cl` [H1005, (S)-4-(3-(1-(2,3-dichloro-4-methoxyphenyl)ethyl)ureido)-N-(1,2,3,4-tetrahydroisoquinolin-6-yl)benzenesulfonamide], for which the EC50 in data set [1] (setting [9]) amounted to 8.88 nM. Moreover, the IC50 in data set [3] (setting [10]) was found to be 19.8 nM. In addition, in data set [5], the “PK F” value amounted to 1.3%, the “PK CLiv” value came out at 7.33 mL/min/kg, the “PK Vdiv” value worked out at 1.46 L/kg and the “PK t1/2iv” value was determined as 2.3 h. In data set [5], the “PK CLpo” value was 555.5 mL/min/kg, the “PK Vdpo” value is 112.3 L/kg and the “PK t1/2po” value is reported as 2.33 h.

Regarding `CC(NC(=O)Nc1ccc(S(=O)(=O)Cc2ccc3c(c2)CNC3)c(F)c1)c1ccccc1.Cl` (stereo not shown) [H1492, 1-(3-fluoro-4-((isoindolin-5-ylmethyl)sulfonyl)phenyl)-3-(1-phenylethyl)urea], the EC50 in data set [1] (setting [6]) is 5.1 nM; in data set [2] (setting [7]), more than 30000 nM. The IC50 in data set [3] (setting [8]) came out at 36.3 nM. In addition, the “Metabolic Stability Study H = human” value in data set [4] was “H = 24.4 μL/min/mg”.

In the case of `CCOC(=O)N1CCc2cc(NS(=O)(=O)c3ccc(NC(=O)N[C@@H](C)c4cccc(Cl)c4Cl)cc3)ccc2C1` [H1054, ethyl (S)-6-((4-(3-(1-(2,3-dichlorophenyl)ethyl)ureido)phenyl)sulfonamido)-3,4-dihydroisoquinoline-2(1H)-carboxylate], in data set [3] (setting [10]), the IC50 is 10100 nM. In data set [5], the “PK F” value was found to be 3.0%, the “PK CLiv” value is 27 mL/min/kg, the “PK Vdiv” value stood at 4.32 L/kg and the “PK t1/2iv” value is recorded as 1.85 h. Further, in data set [5], the “PK CLpo” value was 898 mL/min/kg, the “PK Vdpo” value was found to be 96.2 L/kg and the “PK t1/2po” value is 1.24 h.

Take `COc1cc(S(=O)(=O)Cc2ccc3c(c2)CN(C)C3)ccc1NC(=O)N(O)C(C)c1cccc(Cl)c1Cl` (stereo not shown) [H1496, 1-(1-(2,3-dichlorophenyl)ethyl)-1-hydroxy-3-(2-methoxy-4-(((2-methylisoindolin-5-yl)methyl)sulfonyl)phenyl)urea]: the EC50 in data set [1] (setting [6]) was 2.5 nM; in data set [2] (setting [7]), more than 30000 nM. Moreover, the IC50 in data set [3] (setting [8]) is 5.91 nM. For the same molecule, the “Metabolic Stability Study H = human” value in data set [4] is listed as “H = 178.3 μL/min/mg”.

With `CC(NC(=O)Nc1ccc(S(=O)(=O)Cc2ccc3c(c2)CN(C)C3)cc1-c1ncco1)c1ccccc1` (stereo not shown) [H1501, 1-(4-(((2-methylisoindolin-5-yl)methyl)sulfonyl)-2-(oxazol-2-yl)phenyl)-3-(1-phenylethyl)urea], the EC50 was 18.1 nM in data set [1] (setting [6]) and more than 30000 nM in data set [2] (setting [7]). Further, the 50% inhibitory concentration (IC50) in data set [3] (setting [8]) is 119 nM. Further, the “Metabolic Stability Study H = human” value in data set [4] is “H = 319.6 μL/min/mg”.

Take `CC(NC(=O)Nc1ccc(S(=O)(=O)Cc2ccc3c(c2)CNC3)cc1-c1ncco1)c1ccccc1` (stereo not shown) [H1500, 1-(4-((isoindolin-5-ylmethyl)sulfonyl)-2-(oxazol-2-yl)phenyl)-3-(1-phenylethyl)urea]: the EC50 is 6.2 nM in data set [1] (setting [6]) and more than 30000 nM in data set [2] (setting [7]). For the same molecule, in data set [3] (setting [8]), the IC50 is 16.4 nM. Besides, the “Metabolic Stability Study H = human” value in data set [4] is “H = 61.4 μL/min/mg”.

With `CC(NC(=O)Nc1ccc(S(=O)(=O)Cc2ccc3c(c2)C(F)(F)CN(C)C3)cc1)c1cccc(Cl)c1Cl` (stereo not shown) [H1548, 1-(1-(2,3-dichlorophenyl)ethyl)-3-(4-(((4,4-difluoro-2-methyl-1,2,3,4-tetrahydroisoquinolin-6-yl)methyl)sulfonyl)phenyl)urea], the figures for the EC50 in data set [1] (setting [6]) and in data set [2] (setting [7]) were 132 nM and more than 30000 nM, respectively. Moreover, the IC50 in data set [3] (setting [8]) turned out to be 655 nM.

On to `CC(NC(=O)Nc1ccc(S(=O)(=O)Cc2ccc3c(c2)CNC3)cc1)c1ccccn1` (stereo not shown) [H1289, 1-(4-((isoindolin-5-ylmethyl)sulfonyl)phenyl)-3-(1-(pyridin-2-yl)ethyl)urea], for which the EC50 in data set [1] (HEK293/GRLN, read-out: Activity EC50 (ghrelin inverse agonist potency)) amounted to 161 nM; in data set [2] (HEK293/GHSR1a, read-out: Activity EC50/EMax: EC50 (ghrelin agonist potency)), 147 nM. In data set [3] (HEK293/GHSR1a, ghrelin 10 nM, read-out: Activity IC50 (ghrelin antagonist potency)), the IC50 stood at 542 nM.

Turning to `COc1cc(S(=O)(=O)Cc2nc3c(s2)CNC3)ccc1NC(=O)N[C@@H](C)c1ccccc1` [H1463, (S)-1-(4-(((5,6-dihydro-4H-pyrrolo[3,4-d]thiazol-2-yl)methyl)sulfonyl)-2-methoxyphenyl)-3-(1-phenylethyl)urea], the EC50 was 289 nM in data set [1] (setting [6]) and more than 30000 nM in data set [2] (setting [7]). The IC50 in data set [3] (setting [8]) stood at 1150 nM.

The IC50 is the concentration that inhibits the measured activity by half.
